{
  "source": "paper PMC8678048",
  "about": "(Frontiers in Microbiology, 2021)",
  "target": "ASFV pS273R protease (African swine fever virus, UniProt Q00946)",
  "sequence (Q00946 whole entry, looked up)": "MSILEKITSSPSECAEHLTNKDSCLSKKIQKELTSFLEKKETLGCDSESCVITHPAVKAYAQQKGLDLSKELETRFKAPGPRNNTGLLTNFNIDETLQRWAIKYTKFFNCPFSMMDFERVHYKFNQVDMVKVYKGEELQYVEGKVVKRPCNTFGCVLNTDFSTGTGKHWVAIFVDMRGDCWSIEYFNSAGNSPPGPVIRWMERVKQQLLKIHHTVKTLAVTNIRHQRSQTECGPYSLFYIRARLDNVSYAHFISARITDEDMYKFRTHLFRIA",
  "assay_type": "biochemical",
  "note": "Positions of bridges follow the written chain, without caps; N, C: chain ends. Residues, ends and D or L forms follow the SMILES beside them.",
  "data": [
    {"smiles": "CC[C@H](C)[C@@H]1NC(=O)CNC(=O)[C@H](CO)NC(=O)[C@@H]2CSSC[C@@H](C(=O)N[C@@H](Cc3ccc(O)cc3)C(=O)O)NC(=O)[C@H](CCCCN)NC(=O)[C@@H]3CSSC[C@H](NC(=O)[C@H](CCC(N)=O)NC(=O)[C@H](Cc4ccc(O)cc4)NC(=O)[C@H](CCC(N)=O)NC(=O)[C@H](CC(N)=O)NC(=O)[C@H](Cc4ccccc4)NC(=O)[C@@H]4CCCN4C(=O)[C@@H](NC(=O)CNC(=O)[C@H](Cc4ccc(O)cc4)NC(=O)CN)CSSC[C@H](NC(=O)[C@H](Cc4ccc(O)cc4)NC(=O)CNC(=O)CNC(=O)[C@H](CCCCN)NC(=O)[C@H](Cc4ccc(O)cc4)NC(=O)CNC(=O)[C@H](CCCNC(=N)N)NC1=O)C(=O)N[C@@H](CCCCN)C(=O)NCC(=O)N[C@@H]([C@@H](C)O)C(=O)N[C@@H](Cc1ccccc1)C(=O)N[C@@H](CCCCN)C(=O)N[C@@H](CCC(N)=O)C(=O)N[C@@H]([C@@H](C)O)C(=O)N3)C(=O)N[C@@H](Cc1c[nH]cn1)C(=O)N[C@@H](CO)C(=O)N[C@@H](Cc1c[nH]cn1)C(=O)N2", "note": "[OPTX-1] (H-GYGCPFNQYQCHSHCSGIRGYKGGYCKGTFKQTCKCY-OH; disulfide 4-26, 11-34, 15-36 (inferred); N-terminus and C-terminus assumed)", "values": [
      {"measurement": "mode of inhibition of pS273R protease", "value": "competitive inhibitor of the pS273R protease"}
    ]}
  ]
}
